# Laboratory results from US20240342121A1, “THE USE OF BETA-HYDROXYBUTYRATES FOR THE TREATMENT OR PREVENTION OF ANEURYSMS AND DISSECTIONS” (priority 2021, published 2024).
# Entries after “also recorded” stand apart in the source; their conditions may differ.
# Key:
# [1] = tested on: angiotensin II (AII)-induced AAA; assay: AII-induced AAA mouse model, post-treatment; format: in vivo
# Description: To determine if senescence is a major cause of aneurysm development, the association between senescence and aneurysms using the angiotensin II (AII)-induced AAA model was investigated. Mice were infused AII for four weeks using osmotic mini-pump implantation into Apoe^−/− transgenic mouse.
# To investigate the therapeutic potential of ketotherapy for abdominal aortic aneurysm (AAA), Ketogenic-diet (KD) and Ketone-ester (KE) were provided to angiotensin II (AII)-induced mouse model of AAA (FIG. 6). […] After completing AII infusion, the mice were post-treated with KD and KE for two to four weeks.
# To investigate the time-dependent reduction of aorta diameter, the inner diameter of the aorta using ultrasound analysis was measured.
# [2] = tested on: normal SMCs (NC); assay: Caspase 3 activity assay on normal SMCs; format: cell-based; settings: FIG. 2I
# Description: FIGS. 2A-2L. (a) Cytotoxicity assay of normal smooth muscle cells (NS) and senescent smooth muscle cells (SMCs). Replicative senescent SMCs (RS) and premature senescent SMCs, stimulated by H2O2 (HP), arsenic (Ars), and Nutlin 3a (Nut) treatment were treated with βHB, s-βHB, and ABT-737. (b) Flow cytometry analysis of apoptosis by βHB or s-βHB in radiation (10 Gy)-induced senescent SMC. (c) Quantitation of apoptotic cell and senescent cell after treating βHB and s-βHB in radiation-induced senescent SMC. (d) Representative aorta image of AII-infused mice with post-treatment of ABT-737, βHB and s-βHB. (e) External diameter of abdominal aorta infused with AII and post-treated with ABT-737 βHB and s-βHB. (f) SA-βGal activity assay of the whole aorta infused with AII, and post-treated with ABT-737, KD, or KE. (g) Quantitation of senescent area on aorta of AII-infused mice, and post-treated with KD, KE and ABT-737. (h) TUNEL assay on the abdominal aorta of AII infused mice, and treated with ABT-737, βHB, or s-βHB. SM-α Actin (SMA) and DAPI are co-stained after TUNEL reaction. (i) Caspase 3 activity assay on normal SMCs (NC) treated with βHB, or s-βHB, and ABT-737 comparing to normal cells pretreated with Nutlin-3a. (j) Caspase 3 activity assay on senescent SMCs (SNC) treated with βHB, or s-βHB, and ABT-737 compared to senescent cells pretreated with pifithrin-α. (k) Western blot analysis for p53 and puma expression on abdominal aorta tissue from mice treated with AII or KE. (I) Immunohistochemistry staining for puma expression on abdominal aorta infused by AII and post-treated with KE.
# To overcome the anti-apoptotic barrier of senescence cells, senolytics usually target p53/Bcl2 cascades. Moreover, p53 is considered as a barrier to prevent apoptosis in senescence cells. Therefore, it was investigated if βHB-mediated apoptosis is p53 dependent. […] To further validate p53 dependent apoptosis on AAA, p53 activation and puma expression were investigated. […] In addition, inflammatory response accompanying the apoptosis of senescence cells was observed specifically in the abdominal aorta tissue, while systemic inflammation decreased during ketotherapy (FIGS. 10A-F). […] Ketotherapy can lower the blood pressure caused by AII infusion, which is not the case with ABT-737 (FIGS. 10H-J).
# [3] = tested on: angiotensin II (AII)-induced AAA; assay: AII-induced AAA mouse model, post-treatment; format: in vivo; settings: injection every other day for two weeks, FIG. 2E
# [4] = Metabolic alterations by post-treatment; format: in vivo, mouse; settings: four weeks, FIG. 7
# Description: In order to identify the primary factors for reversing AAA formation, metabolic alterations by post-treatment were investigated. […] Thus, abnormal lipid metabolism caused by KD is unlikely required or helpful for AAA recovery.
# [5] = tested on: AII-induced AAA development; assay: Pretreatment with ketotherapy in AII-induced AAA; format: in vivo, mouse; settings: FIG. 8A-C
# Description: Senescence is considered to be major risk factor that promotes AAA development. […] To determine whether vascular senescence is critical for AAA formation, senescence was prevented by pretreatment with ketotherapy.
# (§1) To confirm the possibility that the therapeutic effect of βHB on AAA is not only applied to AII-induced AAA, the CaCl2)-induced AAA animal model was also examined as well (FIG. 5A).
# [6] = tested on: CaCl2-induced AAA; assay: CaCl2-induced AAA animal model, post-treatment; format: in vivo, mouse
# Description: FIGS. 5A-5J. (a) Representative image of aorta which developed CaCl2)-induced AAA, and post-treated with KD, KE, βHB, s-βHB, or ABT-737. KD is provided to mice for 4 weeks, KE is administrated with drinking water, βHB, s-βHB or ABT-737 are IP injected for 2 weeks with 48h intervals. (b) Incidence of AAA by CaCl2) treatment and proportion of mice recovered from the AAA after post-treatment of KD, KE, βHB and s-βHB for 2 weeks. (c) Time-dependent observation of inner diameter after CaCl2) treatment and post-treatment of KD or KE (28˜56 days after surgery). (d) Comparison of ultrasound images of CaCl2)-induced AAA to the identical aorta post-treated with βHB for 2 weeks. (e) H&E staining of aorta from the mice developed with CaCl2)-induced AAA, and post-treated with KD, KE, βHB, and s-βHB. (f) SA β-Gal activity assay on aorta which developed CaCl2)-induced AAA, and post-treated with KD, KE, βHB, s-βHB, or ABT-737. (g) Quantitation of senescent area on aorta developed with CaCl2)-induced AAA, and post-treated with KD, KE, βHB, s-βHB. (h) Verhoeff Van Gieson/EVG staining of abdominal aorta developed with CaCl2)-induced AAA, post-treated with KD, KE, βHB and s-βHB. (i) Average number of elastic fibers on abdominal aorta presented at FIG. 5H. (j) Measurement of Pulse Wave Velocity (PWV) on CaCl2)-infused mice with post-treatment of KD, KE, βHB, and s-βHB.
# as §1
# To further validate the therapeutic efficacy of s-βHB on aneurysms, we used a CaCl2-induced AAA animal model as well as an angiotensin II infusion model. […] Two-way ANOVA, s-βHB vs βHB, #P<0.01, n=10. Since the elimination of senescent SMCs is critical for the recovery of AAA, we investigated that s-βHB is also effective to remove senescent cells in CaCl2)-induced aneurysms. […] Student's T-test for s-βHB vs βHB, ^#P<0.05, n=8.
# [7] = tested on: aortic dissection (TAD, AAD); assay: BAPN + AngII mouse model of aortic dissection; format: in vivo
# Description: (§2) (a) schematic description of aortic dissection model and ketone treatment. Five-week-old C57BL/6 mice were continuously treated with β-aminopropionitrile (BAPN, 3 g/L/day in drinking water) for 28 days. To test the impacts of ketone body, BAPN-treated mice at day 17 to day 31 were given ketone ester (KE, D-BHB 1-3 butanediol monoester) (20 g/L and 50 gL at 5 mL per day) in drinking water. Further, the BAPN-treated mice, with or without ketone treatment, were continuously infused with angiotensin (AngII, 1.44 mg/kg/day) for three days via subcutaneously implanted osmotic pumps). Three days after AngII infusion, the mice were euthanized to assay for aortic dissection.
# as §2, with “Five week old C57BL/6” for “(a) schematic description of aortic dissection model and ketone treatment. Five-week-old C57BL/6”, “drinking water))” for “drinking water)”, “50 g/L)” for “50 gL at 5 mL per day)”, “euthanized for” for “euthanized to”, “assay” for “assay for”
# [8] = Soto-Mota et al. 2019; cited from earlier work
compound,measurement,setting,value
"CN(C)CC[C@H](CSc1ccccc1)Nc1ccc(S(=O)(=O)NC(=O)c2ccc(N3CCN(Cc4ccccc4-c4ccc(Cl)cc4)CC3)cc2)cc1[N+](=O)[O-] [ABT-737, reference compound]","TUNEL assay, apoptosis of senescent plaque in the aneurysm",[1]; FIG. 2H,induced targeted apoptosis of senescent plaque
same,"branched elastic fibers, Verhoeff Van Gieson/EVG stain",[1]; FIG. 3C,less branched elastic fibers
same,number of elastic layers / elastic recovery,[1]; FIG. 3D,less effective on elastic recovery
same,aortic dissection,"[1]; blood clots inside aneurysm plaque, FIG. 3B",caused aortic dissection
same,volume of aneurysm plaque,[1]; injected,successfully reduced
same,AAA on whole aorta images,"[1]; injected every other day for two weeks, FIG. 2D",successfully rescued
same,mice with abdominal rupture resulting in sudden death,"[1]; injected mice, FIG. 3A",30%
same,apoptosis in normal cells after p53 stabilization,[2]; after p53 stabilization by Nutlin 3a,triggers apoptosis
same,apoptosis in normal cells (NC),[2]; without Nutlin 3a,did not induce apoptosis
same,external diameter of the abdominal aorta,[3],significantly reduced
"C[C@@H](O)CCOC(=O)C[C@@H](C)O [KE, [(3R)-3-hydroxybutyl] (3R)-3-hydroxybutanoate]","aneurysm formation, ultrasound images of identical mouse aorta",[1]; FIG. 1D,reverts aneurysm formation
same,"abdominal aorta stiffness, Pulse Wave Velocity (PWV)","[1]; FIG. 3H, FIG. 18A",ameliorated vascular stiffness; also recorded: reversed aneurysm-associated aortic stiffness
same,"SMC markers (HEXIM1, Calponin 1, SM α-Actin) and dedifferentiation markers (Oct4, MMP2), Western blot","[1]; abdominal aorta, post-treatment, FIG. 3E",reversed all the markers of dedifferentiation and simultaneously recovered SMC markers
same,degenerative markers in PVAT,"[1]; abdominal versus thoracic PVAT, FIG. 3G","specifically reverses degenerative markers, col1A1, RUNX2, and PU.1 in abdominal perivascular adipose (PVAT), not in thoracic PVAT"
same,recovered proportion of AII-induced AAA,"[1]; post-treatment 2 to 4 weeks after 4 weeks AII infusion, C57Bl6 ApoE−/− mice, AAA incidence 60%, FIG. 1A",26%
same,proportion of AII-induced AAA,"[1]; post-treatment 2 to 4 weeks, FIG. 1A",successfully reduced
same,enlarged external diameter of AAA,"[1]; post-treatment of KD and KE, FIG. 1C",decreased significantly
same,"collagen network, Masson's trichrome staining","[1]; post-treatment, FIG. 3F",reconstituted at the perivascular area
same,"myofibroblast, SM α-Actin and FSP co-staining in aortic wall","[1]; post-treatment, FIGS. 17A-17B",increases
same,p53 activation and puma expression on abdominal aorta,"[1]; post-treatment, Western blot and IHC, FIG. 2K",activated phosphorylation of p53 and elevated puma expression
same,"metabolic alterations (body weight, fat mass, blood glucose, TG, liver lipid, insulin resistance)",[4],did not cause metabolic changes such as insulin resistance
same,AII-induced AAA development,[5],strongly inhibited
same,recovery from CaCl2-induced AAA,[6]; FIGS. 5A and 5B,Effective recovery
same,AAA progression,"[6]; post-treatment after four weeks, FIG. 5C",inhibited AAA progression
same,incidence of TAD,"[7]; 20 g/L and 50 g/L in drinking water, day 17 to day 31, FIG. 19B",significantly reduces
same,incidence of AAD,"[7]; 20 g/L and 50 g/L in drinking water, day 17 to day 31, FIG. 19C",significantly reduces
same,survival rate,"[7]; high dose 50 g/L, FIG. 19D",significantly increase
same,metabolic fate (hydrolysis),[8],"complete enzymatic hydrolysis to release R-βHB and R-butane-1,3-diol"
